These results are taken from PubChem BioAssay AID248 (DTP/NCI, 2004).

This experiment deals with L1210 leukemia ip in BDF1 mice, survival T/C. The experiment in a line: NCI In Vivo Anticancer Drug Screen. Data for tumor model L1210 Leukemia (intraperitoneal) in B6D2F1 (BDF1) mice. To be noted: endpoint: mean survival time, higher = longer survival. The method in brief: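 Transplanted-tumor mice were given test agent; controls received vehicle only. Survival readings from the two groups were divided (treated over control).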

The mark [1] stands for this setting: dose: 100.0 mg/kg/injection, schedule: Q01DX001 (ip), vehicle: Klucel (hydroxypropylcellulose) (HPC).
The mark [2] stands for this setting: dose: 100.0 mg/kg/injection, schedule: Q01DX009 (ip), vehicle: Klucel (hydroxypropylcellulose) (HPC).
Setting [3] is: dose: 100.0 mg/kg/injection, schedule: Q04DX003 (ip), vehicle: Klucel (hydroxypropylcellulose) (HPC).
The mark [4] stands for this setting: dose: 200.0 mg/kg/injection, schedule: Q01DX001 (ip), vehicle: Klucel (hydroxypropylcellulose) (HPC).
The mark [5] stands for this setting: dose: 200.0 mg/kg/injection, schedule: Q01DX009 (ip), vehicle: Klucel (hydroxypropylcellulose) (HPC).
The mark [6] stands for this setting: dose: 200.0 mg/kg/injection, schedule: Q04DX003 (ip), vehicle: Klucel (hydroxypropylcellulose) (HPC).
The mark [7] stands for this setting: dose: 400.0 mg/kg/injection, schedule: Q01DX001 (ip), vehicle: Klucel (hydroxypropylcellulose) (HPC).
[8] abbreviates: dose: 400.0 mg/kg/injection, schedule: Q01DX009 (ip), vehicle: Klucel (hydroxypropylcellulose) (HPC).
[9] abbreviates: dose: 400.0 mg/kg/injection, schedule: Q04DX003 (ip), vehicle: Klucel (hydroxypropylcellulose) (HPC).
[10] abbreviates: dose: 400.0 mg/kg/injection, schedule: Q04DX003 (ip), vehicle: saline with Tween-80.
[11] abbreviates: dose: 100.0 mg/kg/injection, schedule: Q01DX009 (ip), vehicle: saline with Tween-80.
The mark [12] stands for this setting: dose: 200.0 mg/kg/injection, schedule: Q01DX009 (ip), vehicle: saline with Tween-80.
Setting [13] is: dose: 400.0 mg/kg/injection, schedule: Q01DX009 (ip), vehicle: saline with Tween-80.

The structures appear in SMILES notation. “And” between values parts separate entries of the source, which are not always exact repeats. Equal values may be shown once. Toxic doses and inconclusive results are not listed.

On to `O=C(NCCCCC(NC(=O)OCc1ccccc1)C(=O)NCCCNCCCCNCCCNC(=O)C(CCCCNC(=O)OCc1ccccc1)NC(=O)OCc1ccccc1)OCc1ccccc1` (stereo not given), for which the T/C runs as follows: (dose: 2.5 mg/kg/injection, schedule: Q01DX Z (ip), vehicle: saline) 93 % of control; (dose: 5.0 mg/kg/injection, schedule: Q01DX Z (ip), vehicle: saline) 96 % of control; (dose: 10.0 mg/kg/injection, schedule: Q01DX Z (ip), vehicle: saline) 98 % of control; (dose: 20.0 mg/kg/injection, schedule: Q01DX Z (ip), vehicle: saline) 96 % of control.

`O=C(CCCC(=O)N/N=C/c1cccc(Cl)c1)N/N=C\c1cccc(Cl)c1`: the T/C is 90 % of control (dose: 50.0 mg/kg/injection, schedule: Q01DX001 (ip), vehicle: other); 93 % of control (dose: 100.0 mg/kg/injection, schedule: Q01DX001 (ip), vehicle: other); 88 % of control (dose: 400.0 mg/kg/injection, schedule: Q01DX001 (ip), vehicle: other).

Regarding `N/N=C/NN=C(N)N`, the T/C was 97 % of control (dose: 15.0 mg/kg/injection, schedule: Q01DX Z (ip), vehicle: saline); 107 % of control (dose: 30.0 mg/kg/injection, schedule: Q01DX Z (ip), vehicle: saline); 100 % of control (dose: 60.0 mg/kg/injection, schedule: Q01DX Z (ip), vehicle: saline); 100 % of control (dose: 120.0 mg/kg/injection, schedule: Q01DX Z (ip), vehicle: saline); 114 % of control (dose: 120.0 mg/kg/injection, schedule: Q01DX Z (oral), vehicle: saline).

`FC1(F)C(F)(F)C(Cl)(Cl)C1(Cl)Cl`: the T/C is 104 % of control (dose: 100.0 mg/kg/injection, schedule: Q04DX003 (ip), vehicle: saline); 96 % of control (dose: 200.0 mg/kg/injection, schedule: Q04DX003 (ip), vehicle: saline); 107 % of control (dose: 400.0 mg/kg/injection, schedule: Q04DX003 (ip), vehicle: saline).

On to `COC(=O)/C(=C\c1ccc(OC)cc1)CC(=O)O`, for which the T/C reads like this: under setting [1], 96 % of control; under setting [2], 101 % of control and 104 % of control; (dose: 100.0 mg/kg/injection, schedule: Q04DX002 (ip), vehicle: Klucel (hydroxypropylcellulose) (HPC)) 98 % of control and 100 % of control; under setting [3], 90 % of control; under setting [4], 93 % of control; under setting [5], 95 % of control and 101 % of control. Moreover, the T/C is, setting by setting: (dose: 200.0 mg/kg/injection, schedule: Q04DX002 (ip), vehicle: Klucel (hydroxypropylcellulose) (HPC)) 95 % of control and 113 % of control; under setting [6], 97 % of control; under setting [7], 104 % of control; under setting [8], 93 % of control and 108 % of control; (dose: 400.0 mg/kg/injection, schedule: Q04DX002 (ip), vehicle: Klucel (hydroxypropylcellulose) (HPC)) 102 % of control and 103 % of control; under setting [9], 97 % of control.

With `C=C(Cl)CSCCCS`, the T/C was 108 % of control (dose: 100.0 mg/kg/injection, schedule: Q01DX009 (ip), vehicle: acetone); 116 % of control (dose: 130.0 mg/kg/injection, schedule: Q01DX009 (ip), vehicle: saline); 123 % of control (dose: 200.0 mg/kg/injection, schedule: Q01DX009 (ip), vehicle: acetone); 120 % of control (dose: 200.0 mg/kg/injection, schedule: Q01DX009 (ip), vehicle: saline); 120 % of control (dose: 300.0 mg/kg/injection, schedule: Q01DX009 (ip), vehicle: saline).

With `Oc1ccccc1O.[O-]c1ccccc1[O-].[O-]c1ccccc1[O-].[O]=[V+2]`, the T/C by setting is: (dose: 4.0 mg/kg/injection, schedule: Q01DX015 (ip), vehicle: saline) 100 % of control; (dose: 8.0 mg/kg/injection, schedule: Q01DX015 (ip), vehicle: saline) 94 % of control; (dose: 12.5 mg/kg/injection, schedule: Q04DX003 (ip), vehicle: saline) 111 % of control; (dose: 16.0 mg/kg/injection, schedule: Q01DX015 (ip), vehicle: saline) 96 % of control; (dose: 18.75 mg/kg/injection, schedule: Q01DX009 (ip), vehicle: saline) 90 % of control; (dose: 25.0 mg/kg/injection, schedule: Q04DX003 (ip), vehicle: saline) 102 % of control. The T/C was 102 % of control (dose: 32.0 mg/kg/injection, schedule: Q01DX015 (ip), vehicle: saline); 101 % of control (dose: 37.5 mg/kg/injection, schedule: Q01DX009 (ip), vehicle: saline); 100 % of control (dose: 50.0 mg/kg/injection, schedule: Q04DX003 (ip), vehicle: saline); 97 % of control (dose: 75.0 mg/kg/injection, schedule: Q04DX003 (ip), vehicle: saline).

As for `CCC(C(=O)NC(C)c1ccc(-c2ccccc2)cc1)c1ccccc1` (stereo not given), the T/C runs as follows: under setting [2], 87 % of control; under setting [5], 92 % of control; under setting [8], 86 % of control.

On to `COC(=O)C(CCC(=O)C=[N+]=N)NC(=O)C(Cl)Cl` (stereo not given), for which the T/C is, setting by setting: (dose: 35.0 mg/kg/injection, schedule: Q01DX001 (ip), vehicle: saline) 122 % of control; (dose: 75.0 mg/kg/injection, schedule: Q01DX001 (ip), vehicle: saline) 122 % of control; (dose: 125.0 mg/kg/injection, schedule: Q01DX001 (ip), vehicle: saline) 111 % of control; (dose: 200.0 mg/kg/injection, schedule: Q04DX003 (ip), vehicle: saline with Tween-80) 167 % of control; (dose: 266.0 mg/kg/injection, schedule: Q01DX001 (ip), vehicle: saline) 98 % of control; under setting [10], 124 % of control. Moreover, the T/C (dose: 600.0 mg/kg/injection, schedule: Q01DX001 (ip), vehicle: saline) is 117 % of control.

Take `CCOC(=O)N(CCCl)C(=O)C(C)C`: the T/C by setting is: under setting [11], 92 % of control; under setting [12], 96 % of control; under setting [13], 94 % of control.

`CC([NH-])CO.CC([NH-])CO.[Cu+2]` (stereo not given): the T/C by setting is: (dose: 12.5 mg/kg/injection, schedule: Q01DX001 (ip), vehicle: saline) 97 % of control; (dose: 25.0 mg/kg/injection, schedule: Q01DX001 (ip), vehicle: saline) 108 % of control.

Regarding `COC(=O)C(=[N+]=[N-])C(=O)OC`, the T/C is 92 % of control under setting [1]; 98 % of control under setting [2]; 102 % of control under setting [3]; 92 % of control under setting [4]; 98 % of control under setting [5]; 101 % of control under setting [6]. Besides, the T/C is 93 % of control under setting [7], 107 % of control under setting [8] and 104 % of control under setting [9].

As to `COc1cc(C)ccc1Cl`, the T/C by setting is: (dose: 50.0 mg/kg/injection, schedule: Q01DX009 (ip), vehicle: saline with Tween-80) 107 % of control; under setting [11], 113 % of control; under setting [12], 110 % of control.

As to `CCc1ccc(NC(=S)NC(=O)/C=C/c2ccccc2)cc1`, the T/C is 92 % of control (dose: 100.0 mg/kg/injection, schedule: Q01DX001 (ip), vehicle: saline with Tween-80); 99 % of control and 102 % of control under setting [11]; 114 % of control (dose: 100.0 mg/kg/injection, schedule: Q04DX002 (ip), vehicle: alcohol); 92 % of control (dose: 100.0 mg/kg/injection, schedule: Q04DX003 (ip), vehicle: saline with Tween-80); 87 % of control (dose: 200.0 mg/kg/injection, schedule: Q01DX001 (ip), vehicle: saline with Tween-80); 92 % of control and 96 % of control under setting [12]. Further, the T/C (dose: 200.0 mg/kg/injection, schedule: Q04DX002 (ip), vehicle: alcohol) was 90 % of control; the T/C (dose: 400.0 mg/kg/injection, schedule: Q01DX001 (ip), vehicle: saline with Tween-80) is 89 % of control; the T/C under setting [13] is 96 % of control and 105 % of control; the T/C (dose: 400.0 mg/kg/injection, schedule: Q04DX002 (ip), vehicle: alcohol) was 97 % of control; the T/C under setting [10] was 87 % of control.
